From PMC6471177 (Pharmaceutics, 2019)
Where two headings read alike, the source gives them in different places.

Columns and labels:
[1] = test system: P-gp; test: in vitro; conditions: rat, pH 7.4
Protocol: To evaluate the effect of LC478 on P-gp mediated efflux activity in rat’s small intestine, transport experiments were conducted following the previously reported method. The incubation medium (pH 7.4) involving […], 5 mM KCl, 1.2 mM CaCl2, 1.2 mM MgCl2, 25 mM NaHCO3, 1.6 mM Na2HPO4, 0.4 mM NaH2PO4, 5 mM D-glucose, and 5 mM D-mannitol was used throughout the transport experiments. […] The small intestine (2 cm from the proximal part of jejunum) was removed, opened along the mesenteric border and rinsed immediately in ice-cold buffer (pH 7.4) under carbogen O2/CO2 (95%/5%) bubbling. The specimens were fixed to 0.61 cm^2 surface area of cells in the Ussing chambers without harming the underlying muscle layer and formed two compartments, mucosal (M) and serosal (S) chambers. […] Cumulative corrections were made for previously removed samples and apparent permeability coefficients (Papp, cm/s) were calculated as follows: Papp = Q/A·c·t, where Q is the total amount of the drug permeated throughout the incubation time, A is the diffusion area of the Ussing chamber, c is the initial drug concentration in the donor compartment, and t is the total time of the experiment. Efflux ratios were calculated from Papp values by: Efflux ratio = secretory Papp/absorptive Papp.

[2] = in vivo; conditions: for Funabs (true unabsorbed fraction) / absorbed fraction in the gastrointestinal tract: 24 h
Source text: Male Sprague–Dawley rats at 6–9 weeks old (weighing 200–260 g) were purchased from Charles River Company Korea (Orient, Seoul, Korea). […] All rats were maintained in the same conditions as a reported method.
For the oral study, after overnight fasting with free access to water, rats were divided into three subgroups according to the doses of LC478 administered, which were the same as in the intravenous study. […] Other procedures were followed to the intravenous study.
Based on the standard methods, we calculated the following pharmacokinetic parameters using non-compartmental analysis (WinNonlin®; Professional Edition version 2.1; Pharsight, Mountain View, CA, USA): The total area under the plasma concentration–time curve from time zero to last blood sampling time (AUClast) or time infinity (AUCinf) by log-linear trapezoidal extrapolation method, terminal half-life, time-averaged total body, renal, and non-renal clearances (CL, CLR, and CLNR, respectively), mean residence time (MRT), apparent volume of distribution at a steady state (Vss), apparent oral clearance (CL/F), and apparent volume of distribution during elimination (Vz/F). We directly read the peak plasma concentration (Cmax) and time to reach Cmax (Tmax) from the experimental data.
The absorbed fraction of oral dose (Fabs), absolute bioavailability (F), and relative bioavailability (Frel) were calculated by the following equations. (1) F (%)=AUCinf, p.o/AUCinf, i.v×100 (2) Frel (%)=AUCinf with LC478/AUCinf without LC478×100 (3) GI24 h, p.o/100=(1−Fabs)+(F/100×GI24 h, i.v./100)

[3] = Pharmacokinetics of intravenous docetaxel with oral LC478 in rats; type: in vivo, Sprague–Dawley rats; conditions: for Vd: read-out: Vss
Protocol: For the intravenous study, rats were divided into three groups according to LC478 doses (0, 30, and 100 mg/kg LC478, respectively). […] To prevent blood clotting, 0.3 mL of 0.9% NaCl-injectable solution containing heparin (20 U/mL) was flushed into each cannula immediately after each blood sampling. […] At this time, each rat was sacrificed by withdrawing blood via a heart puncture, and then the entire gastrointestinal tract (including its contents and feces) was extracted and transferred into a beaker. […] A 100 μL aliquot of the supernatant was collected from each beaker.

[4] = Disappearance of docetaxel in rat hepatic microsomes with LC478; type: in vitro ADME; conditions: hepatic microsomes
Protocol: The hepatic and intestinal microsomes were prepared based on a similar reported method.
Adding 0.1 M phosphate buffer (pH 7.4) adjusted the total volume as 0.5 mL, and then the components were incubated at 37 °C using a thermomixer at 500 opm. After incubation of 15 and 30 min for the hepatic and intestinal microsomes, respectively, 1 mL of acetonitrile with 5 µg/mL of paclitaxel as an internal standard added to terminate the reaction.
The unweighted kinetic data from rat hepatic and intestinal microsomes were fitted using a single-site Michaelis–Menten Equation V = Vmax × [S]/(Km + [S])(4) where [S] is the substrate concentration, Vmax is maximal velocity, and Km is substrate concentration for half-maximal velocity. The CLint was calculated by dividing the Vmax by the Km.

[5] = Rat plasma protein binding of docetaxel by equilibrium dialysis; type: in vitro ADME; conditions: equilibrium dialysis
Protocol: A 1 mL of the plasma was dialyzed against 1 mL of isotonic Sørensen phosphate buffer (pH 7.4) containing 3% dextran (w/v) in a dialysis cell (Spectrum Medical Industries, Laguna Hills, CA, USA) using a Spectra/Por 4 membrane (mol. wt. cutoff 12−14 KDa; Spectrum Medical Industries, USA).

[6] = male, Sprague-Dawley, rat, in vivo, po, 20 mg/kg
[7] = male, Sprague-Dawley, rat, in vivo, po, 30 mg/kg
[8] = male, Sprague-Dawley, rat, in vivo, po, 100 mg/kg
[9] = male, Sprague-Dawley, rat, plasma, iv, 20 mg/kg, rats, docetaxel 20 mg/kg intravenous, with 0 mg/kg LC478
[10] = male, Sprague-Dawley, rat, plasma, iv, 20 mg/kg, rats, docetaxel 20 mg/kg intravenous, with 30 mg/kg oral LC478
[11] = male, Sprague-Dawley, rat, plasma, iv, 20 mg/kg, rats, docetaxel 20 mg/kg intravenous, with 100 mg/kg oral LC478
[12] = rats, docetaxel 20 mg/kg intravenous, with 0 mg/kg LC478
[13] = rats, docetaxel 20 mg/kg intravenous, with 30 mg/kg oral LC478
[14] = rats, docetaxel 20 mg/kg intravenous, with 100 mg/kg oral LC478

Compound: CC(=O)O[C@@]12CO[C@@H]1C[C@H](O)[C@@]1(C)C(=O)[C@H](O)C3=C(C)[C@@H](OC(=O)[C@H](O)[C@@H](NC(=O)OC(C)(C)C)c4ccccc4)C[C@@](O)([C@@H](OC(=O)c4ccccc4)[C@H]21)C3(C)C [docetaxel]
- Papp B→A at 3 h, 1 µM [1]: 1.08 ± 0.115 ×10⁻⁶ cm/s
- CLR,fu (CLR considering the free fraction in plasma) ([2]; male, Sprague-Dawley, rat, in vivo): 5.04 mL/min/kg
- CLR,fu (CLR considering the free fraction in plasma) ([2]; male, Sprague-Dawley, rat, in vivo, 30 mg/kg): 5.15 mL/min/kg
- CLR,fu (CLR considering the free fraction in plasma) ([2]; male, Sprague-Dawley, rat, in vivo, 100 mg/kg): 2.55 mL/min/kg
- CLR [2, 6]: 3.43 ± 1.15 mL/min/kg
- Tmax [2, 6]: 15 min
- AUC(0-t) ([2]; male, Sprague-Dawley, rat, in vivo, po, 20 mg/kg, AUClast): 82.8 ng·h/mL
- CL/F ([2]; male, Sprague-Dawley, rat, in vivo, po, 20 mg/kg, CL/F): 3040 ± 805 mL/min/kg
- CL renal ([2]; male, Sprague-Dawley, rat, in vivo, po, 20 mg/kg, CLR): 3.5 ± 1.1 mL/min/kg
- Vd/F ([2]; male, Sprague-Dawley, rat, in vivo, po, 20 mg/kg, Vz/F): 670 ± 170 L/kg
- Funabs (true unabsorbed fraction) [2, 7]: 36.5%
- absorbed fraction in the gastrointestinal tract [2, 7]: 0.635
- F increased by [2, 8]: 102%
- Frel increased by [2, 8]: 109%
- Funabs (true unabsorbed fraction) [2, 8]: 20.0%
- absorbed fraction in the gastrointestinal tract [2, 8]: 0.801
- Tmax ([2]; rats, docetaxel 20 mg/kg oral, with 30 mg/kg oral LC478): 30 (15−30) min
- Ae0–24 h ([3]; bound over all LC478 groups): less than 1.56 % of dose
- contribution of CLR to CL ([3]; bound over all LC478 groups): less than 1.56%
- Ae0–24 h smaller by ([3]; intravenous docetaxel, 100 mg/kg LC478 vs 0 mg/kg LC478): 31.1%
- Ae0–24 h smaller by ([3]; intravenous docetaxel, 100 mg/kg LC478 vs 30 mg/kg LC478): 37.2%
- CLR slower by ([3]; intravenous docetaxel, 100 mg/kg LC478 vs without LC478): 40%
- GI24 h ([3]; intravenous docetaxel, bound over all LC478 groups): less than 1.76 % of the intravenous dose
- AUC(0-inf) [3, 9]: 4420 ng·h/mL
- AUC(0-t) [3, 9]: 4220 ng·h/mL
- CL renal [3, 9]: 1.13 ± 0.431 mL/min/kg
- MRT [3, 9]: 57.9 min
- clearance [3, 9]: 78.4 ± 13.1 mL/min/kg
- Vd [3, 9]: 4.57 ± 1.03 L/kg
- AUC(0-inf) [3, 10]: 5050 ng·h/mL
- AUC(0-t) [3, 10]: 4830 ng·h/mL
- CL renal [3, 10]: 1.06 ± 0.235 mL/min/kg
- MRT [3, 10]: 58 min
- clearance [3, 10]: 67.9 ± 11.7 mL/min/kg
- half-life ([3]; male, Sprague-Dawley, rat, plasma, iv, 20 mg/kg, rats, docetaxel 20 mg/kg intravenous, with 30 mg/kg oral LC478, read-out: Terminal half-life): 144 ± 37.6 min
- Vd [3, 10]: 4.02 ± 1.36 L/kg
- AUC(0-inf) [3, 11]: 4580 ng·h/mL
- AUC(0-t) [3, 11]: 4470 ng·h/mL
- CL renal [3, 11]: 0.678 ± 0.253 mL/min/kg
- MRT [3, 11]: 67.1 min
- clearance [3, 11]: 70.4 ± 9.1 mL/min/kg
- Vd [3, 11]: 4.91 ± 1.44 L/kg
- Ae0–24 h [3, 12]: 1.42 ± 0.418 % of dose
- CLNR [3, 12]: 77.2 ± 12.8 mL/min/kg
- GI24 h [3, 12]: 0.881 ± 0.411 % of dose
- Ae0–24 h [3, 13]: 1.56 ± 0.129 % of dose
- CLNR [3, 13]: 66.8 ± 11.4 mL/min/kg
- Frel [3, 13]: 114%
- GI24 h [3, 13]: 1.01 ± 0.731 % of dose
- Ae0–24 h [3, 14]: 0.979 ± 0.365 % of dose
- CLNR [3, 14]: 69.7 ± 9.13 mL/min/kg
- Frel [3, 14]: 104%
- GI24 h [3, 14]: 1.76 ± 0.958 % of dose
- Vmax for disappearance of docetaxel ([4]; 5 µM LC478): 0.438 ± 0.0578 nmol/min/mg protein
- Vmax for disappearance of docetaxel ([4]; 10 µM LC478): 0.427 ± 0.0411 nmol/min/mg protein
- Bound fraction to fresh rat plasma ([5]; with 0 μg/mL LC478): 30.6% ± 11.5%
- Bound fraction to fresh rat plasma ([5]; with 0.1 μg/mL LC478): 33.4% ± 3.59%
- Bound fraction to fresh rat plasma ([5]; with 10 μg/mL LC478): 29.7% ± 10.1%
